Experiment [1] deals with His6-ERα298-554 WT (ERα ligand-binding domain) (Homo sapiens (Human), UniProt P03372). Put plainly: Test A: biochemical antagonist activity, LanthaScreen TR-FRET ERα coactivator assay, WT. As to conditions: read-out: Antagonism WT IC50. The method, boiled down:
(§1)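 TR-FRET 520:495 nm emission ratio read after overnight room-temperature incubation; IC50 derived by 4-parameter logistic fit. Mix: 0.5 nM receptor LBD, 0.5 nM Tb-His6 antibody, 250 nM PGC1a peptide, 3 nM or 10 nM estradiol, pH 7.4 phosphate buffer.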
(In general: Time-resolved FRET reads energy transfer from a long-lived donor to a nearby acceptor.)

Experiment [2] addresses His6-ERα298-554 D538G mutant (ERα ligand-binding domain) (Homo sapiens (Human), UniProt P03372, D538G). Put plainly: Test A: biochemical antagonist activity, LanthaScreen TR-FRET ERα coactivator assay, D538G mutant. As to conditions: read-out: Antagonism D538G IC50. The method, boiled down:
as §1

Experiment [3] addresses His6-ERα298-554 Y537S mutant (ERα ligand-binding domain) (Homo sapiens (Human), UniProt P03372, Y537S). Put plainly: Test A: biochemical antagonist activity, LanthaScreen TR-FRET ERα coactivator assay, Y537S mutant. As to conditions: read-out: Antagonism Y537S IC50. A digest of the protocol: as §1
For experiment [4], the system named is MCF7 cells (breast tumor cells) WT. Put plainly: Test B: cell proliferation/viability assay (CellTiter-Glo) on MCF7 WT. The format is cell-based. As to conditions: Homo sapiens, MCF7, 168 h, 7 days of compound exposure. A digest of the protocol:
(§2)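 Parental MCF7 or MCF7 lines transfected with Tyr 537 Ser or Asp 538 Gly ER mutants (selected for estradiol-independent growth) were grown in phenol red-free MEM with 5% charcoal dextran-stripped FBS. Cells were treated with 9-point 1:5 dilutions (3-0.000001 μM final) for 7 days, then read by CellTiter-Glo luminescence.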
(In general: Cellular ATP, detected with luciferase, serves as a proxy for viable cell number.)

Experiment [5] relates to MCF7 cells expressing mutant estrogen receptor Tyr 537 Ser. Kind of experiment: Test B: cell proliferation/viability assay (CellTiter-Glo) on MCF7 Tyr 537 Ser mutant. It is filed as cell-based. The following applies: Homo sapiens, MCF7, 168 h, MCF7 cells expressing ER Tyr 537 Ser mutant, 7 days of compound exposure, read-out: proliferation MCF7 Y537S IC50. The method, boiled down: as §2

The subject of experiment [6] is MCF7 cells expressing mutant estrogen receptor Asp 538 Gly. Kind of experiment: Test B: cell proliferation/viability assay (CellTiter-Glo) on MCF7 Asp 538 Gly mutant. The format is cell-based. The following applies: Homo sapiens, MCF7, 168 h, MCF7 cells expressing ER Asp 538 Gly mutant, 7 days of compound exposure, read-out: proliferation MCF7 D538G IC50. The method, boiled down: as §2

For experiment [7], the target named is ERα in MCF7 cells (Homo sapiens (Human), UniProt P03372). Put plainly: Test C: estrogen receptor degradation activity, ERα in cell western assay in MCF7 cells. The format is cell-based. As to conditions: for DC50: 4 hours post compound addition, ERα in cell western, read-out: Degradation IC50; for % Degradation at 3 μM: 4 hours, relative to fulvestrant. A digest of the protocol:
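MCF7 cells in phenol red-free MEM alpha with 5% charcoal-dextran stripped FBS were treated 4 h with compound (9-point 1:5 dilutions, 3–0.000018 μM final; fulvestrant 0.1 μM as positive control). Fixed cells were immunostained for ERα (Alexa 488) and counterstained with Syto-64 for DNA.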

Setting [8] is: asterisk (*): protocol using 10 nM estradiol.

pIC50: −log10 of the molar value. Where two headings read alike, the source gives them in different places.

Chain of His6-ERα298-554 WT (ERα ligand-binding domain) (P03372 298-554): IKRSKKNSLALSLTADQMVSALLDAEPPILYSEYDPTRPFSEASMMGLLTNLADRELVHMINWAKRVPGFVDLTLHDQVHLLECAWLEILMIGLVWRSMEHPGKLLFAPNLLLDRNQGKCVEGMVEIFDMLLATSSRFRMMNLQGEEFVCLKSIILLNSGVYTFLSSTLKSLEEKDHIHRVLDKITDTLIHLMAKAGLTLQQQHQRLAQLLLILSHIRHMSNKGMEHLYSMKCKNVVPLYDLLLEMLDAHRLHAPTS
Chain of His6-ERα298-554 D538G mutant (ERα ligand-binding domain) (P03372 298-554 D538G): as the sequence (P03372 298-554) above, with D241G counted along it
Chain of ERα in MCF7 cells (P03372 whole entry): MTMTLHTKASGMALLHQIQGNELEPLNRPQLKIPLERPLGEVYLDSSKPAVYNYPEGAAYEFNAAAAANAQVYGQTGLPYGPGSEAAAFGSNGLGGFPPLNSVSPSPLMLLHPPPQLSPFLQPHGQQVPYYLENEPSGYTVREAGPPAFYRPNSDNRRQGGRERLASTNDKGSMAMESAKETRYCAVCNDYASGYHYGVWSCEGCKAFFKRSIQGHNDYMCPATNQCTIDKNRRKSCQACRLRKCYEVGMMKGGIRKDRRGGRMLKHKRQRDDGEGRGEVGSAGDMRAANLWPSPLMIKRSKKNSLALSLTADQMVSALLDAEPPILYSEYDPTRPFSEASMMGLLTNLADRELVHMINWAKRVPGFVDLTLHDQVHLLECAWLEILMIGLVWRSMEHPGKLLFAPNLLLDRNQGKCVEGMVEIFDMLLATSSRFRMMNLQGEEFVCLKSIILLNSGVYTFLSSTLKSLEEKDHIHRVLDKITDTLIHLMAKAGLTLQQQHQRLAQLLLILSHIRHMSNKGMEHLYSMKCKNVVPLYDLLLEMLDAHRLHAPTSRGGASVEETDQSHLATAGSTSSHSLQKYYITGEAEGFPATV
Chain of His6-ERα298-554 Y537S mutant (ERα ligand-binding domain) (P03372 298-554 Y537S): as the sequence (P03372 298-554) above, with Y240S counted along it

In the case of `Oc1cc2c(cc1F)C(c1ccc(O[C@H]3CCN(CCCF)C3)cc1)=C(c1ccc3c(c1)CCN3)CCO2` [Example 142, 7-fluoro-5-[4-[(3S)-1-(3-fluoropropyl)pyrrolidin-3-yl]oxyphenyl]-4-indolin-5-yl-2,3-dihydro-1-benzoxepin-8-ol], the pIC50 in experiment [1] (protocol with 3 nM estradiol) was 7.39; in experiment [2] (protocol with 3 nM estradiol), 5.74; in experiment [3] (protocol with 3 nM estradiol), 5.94; in experiment [4] it was 8.10; in experiment [5], 6.81; in experiment [6], 7.47. Besides, the DC50 in experiment [7] was determined as 2 nM. For the same compound, the “% Degradation at 3 μM” value in experiment [7] was 83%.
`Oc1ccc2c(c1)SCC(c1ccc(Cl)nc1F)=C2c1ccc(O[C@H]2CCN(CCCF)C2)cc1` [Example 55, 3-(6-chloro-2-fluoro-3-pyridyl)-4-[4-[(3S)-1-(3-fluoropropyl)pyrrolidin-3-yl]oxyphenyl]-2H-thiochromen-7-ol]: the pIC50 was 7.32 in experiment [1] (setting [8]); 6.01 in experiment [2] (setting [8]); 6.35 in experiment [3] (setting [8]); 9.15 in experiment [4]; 8.30 in experiment [5]; 9.52 in experiment [6]. For the same compound, the DC50 in experiment [7] was 0.2 nM. In addition, in experiment [7], the “% Degradation at 3 μM” value stood at 88%.
For the compound `CONC(=O)c1cc(C2=C(c3ccc(O[C@H]4CCN(CCCF)C4)cc3)c3ccc(O)cc3SCC2)ccc1F` [Example 199, 2-fluoro-5-[5-[4-[(3S)-1-(3-fluoropropyl)pyrrolidin-3-yl]oxyphenyl]-8-hydroxy-2,3-dihydro-1-benzothiepin-4-yl]-N-methoxy-benzamide], the pIC50 in experiment [1] (setting [8]) is 7.68; in experiment [2] (setting [8]), 6.34; in experiment [3] (setting [8]) it was 6.50; in experiment [4] it was 9.70; in experiment [5], 8.40; in experiment [6], 9.70. In experiment [7], the DC50 turned out to be 0.4 nM. For the same compound, in experiment [7], the “% Degradation at 3 μM” value is given as 94%.
Turning to `Cc1cc(C2=C(c3ccc(O[C@H]4CCN(CCCF)C4)cc3)c3ccc(O)cc3SCC2)ccc1Cl` [Example 162, 4-(4-chloro-3-methyl-phenyl)-5-[4-[(3S)-1-(3-fluoropropyl)pyrrolidin-3-yl]oxyphenyl]-2,3-dihydro-1-benzothiepin-8-ol], the pIC50 in experiment [1] (protocol with 3 nM estradiol) is 8.40; in experiment [2] (protocol with 3 nM estradiol) it was 7.62; in experiment [3] (protocol with 3 nM estradiol), 7.72; in experiment [4], 9.40; in experiment [5], 8.30; in experiment [6], 9.00. Moreover, the DC50 in experiment [7] is 0.8 nM. In experiment [7], the “% Degradation at 3 μM” value is 90%.
In the case of `Cc1cc(C2=C(c3ccc(O[C@H]4CCN(CCCF)C4)cc3)c3ccc(C(=O)O)cc3SCC2)ccc1Cl` [Example 211, 4-(4-chloro-3-methyl-phenyl)-5-[4-[(3S)-1-(3-fluoropropyl)pyrrolidin-3-yl]oxyphenyl]-2,3-dihydro-1-benzothiepine-8-carboxylic acid], the pIC50 is 7.41 in experiment [1] (setting [8]); 6.02 in experiment [2] (setting [8]); 6.32 in experiment [3] (setting [8]); 9.40 in experiment [4]; 8.00 in experiment [5]; 9.22 in experiment [6]. In experiment [7], the DC50 was 0.3 nM. For the same compound, the “% Degradation at 3 μM” value in experiment [7] amounted to 93%.
`Oc1ccc2c(c1)OCCC(c1ccc3occc3c1)=C2c1ccc(O[C@H]2CCN(CCCF)C2)cc1` [Example 120, 4-(benzofuran-5-yl)-5-[4-[(3S)-1-(3-fluoropropyl)pyrrolidin-3-yl]oxyphenyl]-2,3-dihydro-1-benzoxepin-8-ol]: the pIC50 was 8.70 in experiment [1] (protocol with 3 nM estradiol); 8.15 in experiment [2] (protocol with 3 nM estradiol); 8.40 in experiment [3] (protocol with 3 nM estradiol); 9.00 in experiment [4]; 8.00 in experiment [5]; 8.70 in experiment [6]. Besides, in experiment [7], the DC50 was found to be 0.7 nM. For the same compound, the “% Degradation at 3 μM” value in experiment [7] is 91%.
In the case of `CC(C)(C)c1ccc(C2=C(c3ccc(O[C@H]4CCN(CCCF)C4)cc3)c3ccc(O)cc3SC2)c(F)n1` [Example 75, 3-(6-tert-butyl-2-fluoro-3-pyridyl)-4-[4-[(3S)-1-(3-fluoropropyl)pyrrolidin-3-yl]oxyphenyl]-2H-thiochromen-7-ol], the pIC50 was 5.60 in experiment [1] (setting [8]); less than 5.40 in experiment [2] (setting [8]); less than 5.40 in experiment [3] (setting [8]); 7.20 in experiment [4]; less than 6.00 in experiment [5]; 7.13 in experiment [6]. For the same compound, the DC50 in experiment [7] came out at 27 nM. Also, the “% Degradation at 3 μM” value in experiment [7] amounted to 92%.
For the compound `O=C(O)c1ccc2c(c1)CCCC(c1ccc(OC(F)F)c(F)c1)=C2c1ccc(O[C@H]2CCN(CCCF)C2)nc1` [Example 248, 6-[4-(difluoromethoxy)-3-fluoro-phenyl]-5-[6-[(3S)-1-(3-fluoropropyl)pyrrolidin-3-yl]oxy-3-pyridyl]-8,9-dihydro-7H-benzo[7]annulene-2-carboxylicacid], the pIC50 was 6.85 in experiment [1] (setting [8]); 5.46 in experiment [2] (setting [8]); 5.72 in experiment [3] (setting [8]); 9.15 in experiment [4]; 7.82 in experiment [5]; 9.00 in experiment [6]. Besides, the DC50 in experiment [7] was 0.7 nM. Also, the “% Degradation at 3 μM” value in experiment [7] came out at 95%.
Regarding `Oc1ccc2c(c1)SCCC(c1ccc3c(c1)CCN3)=C2c1ccc(O[C@H]2CCN(CCCF)C2)cc1` [Example 176, 5-[4-[(3S)-1-(3-fluoropropyl)pyrrolidin-3-yl]oxyphenyl]-4-indolin-5-yl-2,3-dihydro-1-benzothiepin-8-ol], the pIC50 in experiment [1] (protocol with 3 nM estradiol) was 8.22; in experiment [2] (protocol with 3 nM estradiol), 7.55; in experiment [3] (protocol with 3 nM estradiol), 7.70; in experiment [4], 8.52; in experiment [5], 7.32; in experiment [6], 8.05. In addition, the DC50 in experiment [7] was found to be 0.2 nM. Further, in experiment [7], the “% Degradation at 3 μM” value is 85%.
In the case of `Oc1ccc2c(c1)SCCC(c1ccc(F)c(OC(F)F)c1)=C2c1ccc(O[C@H]2CCN(CCCF)C2)cc1` [Example 188, 4-[3-(difluoromethoxy)-4-fluoro-phenyl]-5-[4-[(3S)-1-(3-fluoropropyl)pyrrolidin-3-yl]oxyphenyl]-2,3-dihydro-1-benzothiepin-8-ol], the pIC50 in experiment [1] (protocol with 3 nM estradiol) is 8.09; in experiment [2] (protocol with 3 nM estradiol) it was 6.58; in experiment [3] (protocol with 3 nM estradiol), 6.80; in experiment [4], 9.70; in experiment [5] it was 8.40; in experiment [6], 8.70. Further, the DC50 in experiment [7] was found to be 0.8 nM. Besides, the “% Degradation at 3 μM” value in experiment [7] is 90%.
In the case of `Oc1ccc(C2=C(c3ccc(O[C@H]4CCN(CCCF)C4)cc3)c3ccc(O)cc3OC2)cc1` [Example 83, 4-[4-[(3S)-1-(3-fluoropropyl)pyrrolidin-3-yl]oxyphenyl]-3-(4-hydroxyphenyl)-2H-chromen-7-ol], the pIC50 in experiment [1] (protocol with 3 nM estradiol) is 7.09; in experiment [2] (protocol with 3 nM estradiol), 5.88; in experiment [3] (protocol with 3 nM estradiol), 5.93; in experiment [4], 8.70; in experiment [5], 7.74; in experiment [6], 7.89. The DC50 in experiment [7] turned out to be 2 nM. In addition, the “% Degradation at 3 μM” value in experiment [7] is on record as 75%.
In the case of `CCN(CC)c1ccc(C2=C(c3ccc(O[C@H]4CCN(CCCF)C4)cc3)c3ccc(O)cc3SC2)c(F)c1` [Example 74, 3-[4-(diethylamino)-2-fluoro-phenyl]-4-[4-[(3S)-1-(3-fluoropropyl)pyrrolidin-3-yl]oxyphenyl]-2H-thiochromen-7-ol], the pIC50 was 6.49 in experiment [1] (setting [8]); less than 5.40 in experiment [2] (setting [8]); 5.62 in experiment [3] (setting [8]); 7.92 in experiment [4]; 6.76 in experiment [5]; 7.80 in experiment [6]. Further, the DC50 in experiment [7] is 4 nM. The “% Degradation at 3 μM” value in experiment [7] is listed as 83%.
Take `Oc1ccc2c(c1)CCCC(c1ccc(Cl)cc1Cl)=C2c1ccc(N[C@H]2CCN(CCCF)C2)cc1` [Example 85, 6-(2,4-dichlorophenyl)-5-[4-[[(3S)-1-(3-fluoropropyl)pyrrolidin-3-yl]amino]phenyl]-8,9-dihydro-7H-benzo[7]annulen-2-ol]: the pIC50 in experiment [1] (setting [8]) was 9.00; in experiment [2] (setting [8]) it was 7.68; in experiment [3] (setting [8]), 7.82; in experiment [4] it was 9.40; in experiment [5] it was 8.15; in experiment [6], 9.15. The DC50 in experiment [7] stood at 1 nM. For the same compound, the “% Degradation at 3 μM” value in experiment [7] is 86%.
